Laboratory results: US20250109146A1, “BRIDGED RING-SUBSTITUTED HETEROARYL-PYRAN DERIVATIVE, AND USE THEREOF” (priority 2022, published 2025)
pIC50: −log10 of the molar value. Counter-ions that a name gives are not always drawn.

What was measured:
[1] = test system: p-ERK in KRAS^G12D mutant AsPC-1 cells; experiment: Assay of p-ERK inhibition in AsPC-1 cells (HTRF); type: cell-based; conditions: HTRF method, 1 hour incubation with compound
Method: • 1) ASPC-1 cells were inoculated in a transparent 96-well cell culture plate, and each well contained 80 μL of cell suspension and 8000 cells. The cell plate was inoculated in a carbon dioxide incubator at 37° C. overnight; • 2) After completion of the incubation, the cell supernatant was discarded. […] 2 μL of the compound was weighed and added to 78 μL of a cell starvation medium. After the mixture was mixed thoroughly, 20 μL of the solution of compound was weighed and added to the corresponding well of the cell plate. […] 50 μL of cell lysate was added to each well. […] The mixture was incubated at room temperature for 4 hours; • 7) After completion of the incubation, HTRF was read with multi-label analyzer: excitation: 320 nm, emission: 615 nm, 665 nm.

[2] = test system: p-ERK in KRAS^G12D mutant AGS cells; experiment: Assay of p-ERK inhibition in AGS cells (HTRF); type: cell-based; conditions: Homo sapiens, 3 hours incubation with compound
Method: • 1) AGS cells were inoculated in a transparent 96-well cell culture plate, and each well contained 80 μL of cell suspension and 10000 cells. […] 80 μL of medium containing 0.02% serum was added to each well. The cell plate was incubated in a carbon dioxide incubator at 37° C. overnight; • 3) 2 μL of the compound was weighed and added to 78 μL of the cell medium. After the mixture was mixed thoroughly, 20 μL of the solution of compound was weighed and added to the corresponding well of the cell plate. […] 50 μL of 1× cell lysate was added to each well. […] The mixture was incubated at room temperature for at least 4 hours; • 7) After completion of the incubation, HTRF was read with multi-label analyzer: excitation: 320 nm, emission: 615 nm, 665 nm; • 8). IC50 of the compound to be assayed was calculated. […]
• 1) AGS cells were inoculated in a transparent 96-well cell culture plate, and each well contained 80 μL of cell suspension and 10000 cells. […] The mixture was incubated at room temperature for at least 4 hours; • 7) After completion of the incubation, HTRF was read with multi-label analyzer: excitation: 320 nm, emission: 615 nm, 665 nm; • 8). IC50 of the compound to be assayed was calculated.

Compound	pIC50 [1]	pIC50 [2]
CC#Cc1cc(N)c(F)c([C@H]2Cc3nc(OC[C@]45CCCN4C/C(=C\F)C5)nc(N4CC5CCC(C4)N5)c3CO2)c1C(F)(F)F [Compound 11 formate]	9.05	
CC#Cc1cc(N)c(F)c([C@@H]2Cc3nc(OC[C@]45C=CCN4CCC5)nc(N4CC5CCC(C4)N5)c3CO2)c1C(F)(F)F [Compound 10 hydrochloride]	8.96	
C#Cc1c(F)ccc2cc(N)cc(C3Cc4nc(OC[C@@]56CCCN5C[C@H](F)C6)nc(N5CC6CCC(C5)N6)c4CO3)c12 (stereo partly drawn) [Compound 3 hydrochloride]		7.19
